Structures can show the parent of a compound that is named as a salt.
Key:
M1 muscarinic receptor = target: T1, M1 muscarinic receptor (Homo sapiens, UniProt P11229); assay: Functional mobilization of intracellular calcium (FLIPR), M1-CHO cells; assay type: cell-based; details: for Emax: 100% efficacy is the maximum response obtained using Carbachol as a control; for M1 Activity: M1-CHO cells, FLIPR calcium mobilization
T1 construct: expressed in transfected cells; host or cells: CHO (M1-CHO)
T1 sequence (P11229 1-460): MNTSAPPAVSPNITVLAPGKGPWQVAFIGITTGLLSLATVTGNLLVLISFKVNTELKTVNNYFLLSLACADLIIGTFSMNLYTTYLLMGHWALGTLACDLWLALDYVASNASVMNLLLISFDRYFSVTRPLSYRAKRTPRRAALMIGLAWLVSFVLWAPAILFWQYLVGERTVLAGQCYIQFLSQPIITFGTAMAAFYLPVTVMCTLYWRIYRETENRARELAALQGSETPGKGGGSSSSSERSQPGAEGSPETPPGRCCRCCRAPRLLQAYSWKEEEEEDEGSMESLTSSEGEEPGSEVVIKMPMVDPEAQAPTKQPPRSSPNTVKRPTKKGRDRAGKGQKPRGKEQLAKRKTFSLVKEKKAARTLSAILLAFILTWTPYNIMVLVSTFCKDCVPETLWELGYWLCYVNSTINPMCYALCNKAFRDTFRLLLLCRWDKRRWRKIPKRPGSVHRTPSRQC
In short: (§1)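 CHO cells expressing M1 or M4, loaded with Fluo-3 AM or Calcium 3 dye with 1 mM probenecid, 0.5% DMSO final. Agonist mode: compound added directly; antagonist mode: 15 min pre-incubation (or co-application) before carbachol at EC80. Fluorescence recorded 60 s on FLIPR.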

M4 muscarinic receptor = target: T2, M4 muscarinic receptor (Homo sapiens, UniProt P08173); assay: Functional mobilization of intracellular calcium (FLIPR), M4-CHO cells; assay type: cell-based; details: for Emax: 100% efficacy is the maximum response obtained using Carbachol as a control; for M4 Activity: M4-CHO cells, FLIPR calcium mobilization
T2 construct: expressed in transfected cells; host or cells: CHO (M4-CHO)
T2 sequence (P08173 1-479): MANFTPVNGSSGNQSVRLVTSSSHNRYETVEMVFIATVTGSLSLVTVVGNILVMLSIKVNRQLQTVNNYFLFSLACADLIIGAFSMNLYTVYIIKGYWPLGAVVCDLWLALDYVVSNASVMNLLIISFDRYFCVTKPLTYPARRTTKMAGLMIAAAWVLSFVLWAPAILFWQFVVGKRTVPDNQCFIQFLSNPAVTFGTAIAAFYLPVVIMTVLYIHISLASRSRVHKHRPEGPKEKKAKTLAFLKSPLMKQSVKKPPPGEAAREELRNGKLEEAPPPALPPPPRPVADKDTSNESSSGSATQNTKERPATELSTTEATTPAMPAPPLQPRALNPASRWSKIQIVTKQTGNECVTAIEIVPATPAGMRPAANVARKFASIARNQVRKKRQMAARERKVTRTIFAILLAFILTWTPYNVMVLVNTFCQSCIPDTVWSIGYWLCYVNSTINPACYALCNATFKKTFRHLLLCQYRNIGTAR
In short: as §1

Structure (SMILES)	Emax (M1 muscarinic receptor)	M1 Activity (M1 muscarinic receptor)	Emax (M4 muscarinic receptor)	M4 Activity (M4 muscarinic receptor)
CCOC(=O)N1C2CCC1CC(N1CCC3(CC1)CN(C(=O)c1ccc(F)cc1)Cc1ccccc13)C2 (stereo not shown) [compound 71]	25 to 100%	+++ (activity was measured to be less than 1.0 μM)	< 25%	+ (activity was measured to be greater than 5.0 μM)
CCOC(=O)N1CCC(CN2CCC3(CC2)CN(C(=O)Oc2ccc(F)cc2)Cc2ccccc23)CC1 [compound 72]	25 to 100%	+++ (activity was measured to be less than 1.0 μM)	25 to 100%	+++ (activity was measured to be less than 1.0 μM)
CCOC(=O)N1C2CCC1CC(N1CCC3(CC1)CN(C(=O)OCCOC)Cc1ccccc13)C2 (stereo not shown) [compound 73]	25 to 100%	+++ (activity was measured to be less than 1.0 μM)	25 to 100%	+++ (activity was measured to be less than 1.0 μM)
COC(=O)N1CCC(CN2CCC3(CC2)CN(C(C)=O)Cc2ccccc23)CC1 [compound 74]	25 to 100%	+++ (activity was measured to be less than 1.0 μM)	25 to 100%	+++ (activity was measured to be less than 1.0 μM)
CC(=O)CN1CCC2(CC1)CN(C(C)=O)Cc1ccccc12 [compound 78]	25 to 100%	+ (activity was measured to be greater than 5.0 μM)	25 to 100%	+ (activity was measured to be greater than 5.0 μM)
CCOC(=O)N1CCC(CN2CCC3(CC2)CN(C(=O)c2cc4ccccc4s2)Cc2ccccc23)CC1 [compound 80]	25 to 100%	+++ (activity was measured to be less than 1.0 μM)	25 to 100%	+++ (activity was measured to be less than 1.0 μM)
CCOC(=O)N1CCC(N2CCC3(CC2)CN(C(=O)Nc2c(C)noc2C)Cc2ccccc23)CC1 [compound 84]	25 to 100%	+++ (activity was measured to be less than 1.0 μM)	< 25%	+++ (activity was measured to be less than 1.0 μM)
CCOC(=O)N1CCC(N2CCC3(CC2)CN(CC2CCCCC2)Cc2ccccc23)CC1 [compound 87]	25 to 100%	++ (activity was measured to be from 1.0 μM to 5.0 μM)	< 25%	++ (activity was measured to be from 1.0 μM to 5.0 μM)
CC(=O)N1Cc2ccccc2C2(CCN(C3CCN(C(=O)OC(C)C)CC3)CC2)C1 [compound 88]	25 to 100%	+++ (activity was measured to be less than 1.0 μM)	25 to 100%	+++ (activity was measured to be less than 1.0 μM)
COCCN1CCC2(CC1)CN(C(C)=O)Cc1ccccc12 [compound 89]	< 25%	+ (activity was measured to be greater than 5.0 μM)	< 25%	+ (activity was measured to be greater than 5.0 μM)
COCCOC(=O)N1C2CCC1CC(N1CCC3(CC1)CN(C(C)=O)Cc1ccccc13)C2 (stereo not shown) [compound 90]	25 to 100%	+++ (activity was measured to be less than 1.0 μM)	25 to 100%	+++ (activity was measured to be less than 1.0 μM)
CCNC(=O)N1Cc2ccccc2C2(CCN(CC3CCN(C(=O)OCC)CC3)CC2)C1 [compound 91]	25 to 100%	+++ (activity was measured to be less than 1.0 μM)	25 to 100%	+++ (activity was measured to be less than 1.0 μM)
CCOC(=O)N1C2CCC1CC(N1CCC3(CC1)CN(C(=O)c1cnn(-c4ccccc4)c1C(F)(F)F)Cc1ccccc13)C2 (stereo not shown) [compound 92]	25 to 100%	++ (activity was measured to be from 1.0 μM to 5.0 μM)	25 to 100%	++ (activity was measured to be from 1.0 μM to 5.0 μM)
CC(=O)N1Cc2ccccc2C2(CCN(C3CCC4(CC3)OCCO4)CC2)C1 [compound 93]	25 to 100%	+ (activity was measured to be greater than 5.0 μM)	< 25%	+ (activity was measured to be greater than 5.0 μM)
CC(=O)N1Cc2ccccc2C2(CCN(CC3CC4CCC3CC4)CC2)C1 (stereo not shown) [compound 94]	25 to 100%	++ (activity was measured to be from 1.0 μM to 5.0 μM)	25 to 100%	+++ (activity was measured to be less than 1.0 μM)
O=C(OC1CCC1)N1Cc2ccccc2C2(CCN(C3CC4CCC(C3)N4C(=O)O[C@H]3CCOC3)CC2)C1 (stereo partly shown) [compound 95]	25 to 100%	+++ (activity was measured to be less than 1.0 μM)	25 to 100%	+++ (activity was measured to be less than 1.0 μM)
COCCOC(=O)N1Cc2ccccc2C2(CCN(C3CC4CCC(C3)N4C(=O)OCCOC)CC2)C1 (stereo not shown) [compound 96]	25 to 100%	+++ (activity was measured to be less than 1.0 μM)	25 to 100%	+++ (activity was measured to be less than 1.0 μM)
CC(=O)N1Cc2ccccc2C2(CCN(Cc3nccs3)CC2)C1 [compound 98]	< 25%	+ (activity was measured to be greater than 5.0 μM)	< 25%	+ (activity was measured to be greater than 5.0 μM)
CCCOC(=O)N1Cc2ccccc2C2(CCN(C3CC4CCC(C3)N4C(=O)OCC)CC2)C1 (stereo not shown) [compound 99]	25 to 100%	+++ (activity was measured to be less than 1.0 μM)	25 to 100%	+++ (activity was measured to be less than 1.0 μM)
CCCOc1ccc(CN2CCC3(CC2)CN(C(C)=O)Cc2ccccc23)cc1 [compound 100]	< 25%	+ (activity was measured to be greater than 5.0 μM)	< 25%	+ (activity was measured to be greater than 5.0 μM)
CC(=O)N1Cc2ccccc2C2(CCN(Cc3cc(C)c(C)o3)CC2)C1 [compound 101]	< 25%	+ (activity was measured to be greater than 5.0 μM)	< 25%	+ (activity was measured to be greater than 5.0 μM)
O=C(C1CC1)N1Cc2ccccc2C2(CCN(C3CC4CCC(C3)N4C(=O)OC3CCC3)CC2)C1 (stereo not shown) [compound 102]	25 to 100%	+++ (activity was measured to be less than 1.0 μM)	25 to 100%	+++ (activity was measured to be less than 1.0 μM)
CCOC(=O)N1CCC(C)(CN2CCC3(CC2)CN(C(C)=O)Cc2ccccc23)CC1 [compound 103, ethyl 4-((2-acetyl-2,3-dihydro-1H-spiro[isoquinoline-4,4′-piperidine]-1′-yl)methyl)-4-methylpiperidine-1-carboxylate hydrochloride]	25 to 100%	+++ (activity was measured to be less than 1.0 μM)	25 to 100%	+++ (activity was measured to be less than 1.0 μM)
CCOC(=O)N1CCC(N2CCC3(CC2)CN(C(=O)NC(C)C)Cc2ccccc23)CC1 [compound 104]	25 to 100%	+++ (activity was measured to be less than 1.0 μM)	25 to 100%	+++ (activity was measured to be less than 1.0 μM)
COC(=O)c1cccc(CN2CCC3(CC2)CN(C(C)=O)Cc2ccccc23)c1 [compound 105]	< 25%	+ (activity was measured to be greater than 5.0 μM)	< 25%	+ (activity was measured to be greater than 5.0 μM)
CCCCNC(=O)N1Cc2ccccc2C2(CCN(C3CCN(C(=O)OCC)CC3)CC2)C1 [compound 106]	25 to 100%	+++ (activity was measured to be less than 1.0 μM)	25 to 100%	+++ (activity was measured to be less than 1.0 μM)
COc1ccc(CN2CCC3(CC2)CN(C(C)=O)Cc2ccccc23)cc1F [compound 107]	< 25%	+ (activity was measured to be greater than 5.0 μM)	< 25%	+ (activity was measured to be greater than 5.0 μM)
CCOC(=O)N1CCC(N2CCC3(CC2)CN(C(=O)N2CCCC2)Cc2ccccc23)CC1 [compound 110]	25 to 100%	+++ (activity was measured to be less than 1.0 μM)	25 to 100%	+++ (activity was measured to be less than 1.0 μM)
